Reference: ChEMBL document CHEMBL1201862, “PubChem BioAssay data set” (2004)
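Each compound was tested at five concentrations against cells in 96-well plates for 48 hours. GI50 is the concentration that inhibits growth by half.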 Calls of active or inactive are those of the source. Rule as the data show it: active = GI50 up to about 1.1 µM and inactive = higher.

Columns and labels:
Assay in all cases: DTP human tumour cell line panel, 48 h
OVCAR-3 = test system: OVCAR-3
NCI-H226 = test system: NCI-H226
HCT-116 = test system: HCT-116
HOP-62 = test system: HOP-62
UACC-257 = test system: UACC-257
SN12C = test system: SN12C
HCT-15 = test system: HCT-15
SK-OV-3 = test system: SK-OV-3
SF-268 = test system: SF-268
SK-MEL-5 = test system: SK-MEL-5
TK-10 = test system: TK-10
KM12 = test system: KM12
NCI-H522 = test system: NCI-H522
A549 = test system: A549
Malme-3M = test system: Malme-3M
NCI-H23 = test system: NCI-H23
HT-29 = test system: HT-29
OVCAR-5 = test system: OVCAR-5
HOP-92 = test system: HOP-92

Compound | GI50 (OVCAR-3) | GI50 (NCI-H226) | GI50 (HCT-116) | GI50 (HOP-62) | GI50 (UACC-257) | GI50 (SN12C) | GI50 (HCT-15) [µM] | GI50 (SK-OV-3) | GI50 (SF-268) | GI50 (SK-MEL-5) | GI50 (TK-10) | GI50 (KM12) | GI50 (NCI-H522) | GI50 (A549) | GI50 (Malme-3M) | GI50 (NCI-H23) | GI50 (HT-29) | GI50 (OVCAR-5) | GI50 (HOP-92)
COC(=O)C1CC(OC(C)=O)C=C2C(=O)CCC21 (stereo not given) | 13.9 µM (inactive) | 73.1 µM (inactive) | 16.3 µM (inactive) | 25.4 µM (inactive) | 16.8 µM (inactive) | 19.2 µM (inactive) | 15.3 | 27.1 µM (inactive) | 16.6 µM (inactive) | 20.5 µM (inactive) | 29.4 µM (inactive) | 16.9 µM (inactive) | 1.89 µM (inactive) | 37.2 µM (inactive) | 19.6 µM (inactive) | – | – | – | –
CN(C)CCNC(=O)c1cc([N+](=O)[O-])ccn1 | 22.5 µM (inactive) | > 100 µM (inactive) | 24.8 µM (inactive) | 31.4 µM (inactive) | 16.3 µM (inactive) | 23.8 µM (inactive) | 18.1 | 70.3 µM (inactive) | 28.4 µM (inactive) | 18.6 µM (inactive) | > 100 µM (inactive) | 32.8 µM (inactive) | 18.1 µM (inactive) | 30.8 µM (inactive) | 14.8 µM (inactive) | 20.9 µM (inactive) | 11.4 µM (inactive) | 71.4 µM (inactive) | –
COc1cc2c(cc1O)[C@H](Cc1ccc(Oc3cc(C[C@H]4c5cc(OC)c(OC)cc5CCN4C)ccc3OC)cc1)NCC2 | 10.5 µM (inactive) | 12.7 µM (inactive) | 8.11 µM (inactive) | > 10 µM (inactive) | 15.8 µM (inactive) | 14.8 µM (inactive) | 7.98 | – | 11.1 µM (inactive) | – | > 10 µM (inactive) | 12.9 µM (inactive) | – | 17.9 µM (inactive) | 22.1 µM (inactive) | 11.9 µM (inactive) | 6.22 µM (inactive) | 18 µM (inactive) | 5.16 µM (inactive)
CCC(=O)N1C(=O)OCC1C(C)C (stereo not given) | > 100 µM (inactive) | – | > 100 µM (inactive) | > 100 µM (inactive) | > 100 µM (inactive) | > 100 µM (inactive) | > 100 | > 100 µM (inactive) | > 100 µM (inactive) | > 100 µM (inactive) | > 100 µM (inactive) | > 100 µM (inactive) | – | > 100 µM (inactive) | > 100 µM (inactive) | > 100 µM (inactive) | > 100 µM (inactive) | > 100 µM (inactive) | > 100 µM (inactive)
COc1ccc2c3ccc4c(c3n(C)c2c1)C(=O)c1ccccc1C4=O | – | > 100 µM (inactive) | 30.1 µM (inactive) | > 100 µM (inactive) | > 100 µM (inactive) | > 100 µM (inactive) | > 100 | 21.6 µM (inactive) | 56.6 µM (inactive) | > 100 µM (inactive) | – | – | > 100 µM (inactive) | 74.5 µM (inactive) | 85.7 µM (inactive) | > 100 µM (inactive) | 11.7 µM (inactive) | – | 80 µM (inactive)
OCC(O)C(O)C(O)c1nnn[nH]1 (stereo not given) | > 100 µM (inactive) | 34.8 µM (inactive) | > 100 µM (inactive) | > 100 µM (inactive) | – | > 100 µM (inactive) | > 100 | > 100 µM (inactive) | > 100 µM (inactive) | > 100 µM (inactive) | – | > 100 µM (inactive) | > 100 µM (inactive) | – | > 100 µM (inactive) | > 100 µM (inactive) | > 100 µM (inactive) | > 100 µM (inactive) | > 100 µM (inactive)
COc1ccc(N2/C(=N/c3ccccc3)SC(=N/S(=O)(=O)c3ccccc3)/C2=N\S(=O)(=O)c2ccccc2)cc1 | – | 21.8 µM (inactive) | 12.6 µM (inactive) | 26.7 µM (inactive) | 26.8 µM (inactive) | 15.8 µM (inactive) | 13.3 | – | – | 16.6 µM (inactive) | 20.1 µM (inactive) | 38.8 µM (inactive) | – | 18.5 µM (inactive) | 21 µM (inactive) | 12.9 µM (inactive) | 19.6 µM (inactive) | 22.6 µM (inactive) | 16.4 µM (inactive)
CN(C)c1ccc(/C=C/C(=O)c2ccccc2)cc1Br | 17.8 µM (inactive) | – | – | 48.5 µM (inactive) | 22.3 µM (inactive) | 21.1 µM (inactive) | 22.9 | 33 µM (inactive) | 18.2 µM (inactive) | 18.4 µM (inactive) | 26.1 µM (inactive) | 15.8 µM (inactive) | 15 µM (inactive) | 34.9 µM (inactive) | 17.6 µM (inactive) | 16.5 µM (inactive) | 19.7 µM (inactive) | 49.3 µM (inactive) | –
Cn1c(CCC#N)nc2ccc(Br)cc2c1=O | – | > 100 µM (inactive) | – | > 100 µM (inactive) | > 100 µM (inactive) | > 100 µM (inactive) | > 100 | > 100 µM (inactive) | > 100 µM (inactive) | > 100 µM (inactive) | > 100 µM (inactive) | > 100 µM (inactive) | > 100 µM (inactive) | > 100 µM (inactive) | > 100 µM (inactive) | 41.7 µM (inactive) | > 100 µM (inactive) | > 100 µM (inactive) | > 100 µM (inactive)
